From article PMC6627609, “Targeting Quorum Sensing: High-Throughput Screening to Identify Novel LsrK Inhibitors” (International Journal of Molecular Sciences, 2019) come the findings set out here.

This experiment concerns the target LsrK (Salmonella typhimurium, UniProt Q8ZKQ6). In words: biochemical. It is filed as biochemical, S. typhimurium. The conditions noted are these: for Inhibition (%): 50 µM.

A word on the inhibition: it is the drop in the measured response relative to a control, in per cent.

Structures can show the parent of a compound that is named as a salt.

LsrK, sequence (Q8ZKQ6 whole entry): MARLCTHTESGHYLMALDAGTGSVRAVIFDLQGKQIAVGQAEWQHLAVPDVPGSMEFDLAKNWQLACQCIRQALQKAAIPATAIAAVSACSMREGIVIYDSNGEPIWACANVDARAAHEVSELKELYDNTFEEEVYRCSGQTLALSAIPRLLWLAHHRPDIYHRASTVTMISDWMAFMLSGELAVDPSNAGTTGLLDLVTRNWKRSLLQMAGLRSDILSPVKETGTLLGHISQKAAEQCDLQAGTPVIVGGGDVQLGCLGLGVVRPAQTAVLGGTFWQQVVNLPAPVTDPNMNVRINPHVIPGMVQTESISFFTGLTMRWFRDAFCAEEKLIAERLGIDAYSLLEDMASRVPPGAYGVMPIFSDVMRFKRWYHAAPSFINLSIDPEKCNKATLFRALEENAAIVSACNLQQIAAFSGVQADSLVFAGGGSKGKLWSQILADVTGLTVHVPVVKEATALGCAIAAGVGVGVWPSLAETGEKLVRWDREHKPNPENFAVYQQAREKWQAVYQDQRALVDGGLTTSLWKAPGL

As to `O=c1cc(-c2ccccc2)oc2cc(O)cc(O)c12` [CHRYSIN], the inhibition at 50 µM came out at 3%.

Turning to `Cc1cc(O)c2c(c1)C(=O)c1cccc(O)c1C2=O` [CHRYSOPHANOL], the inhibition at 50 µM turned out to be 1%.

As to `COC(=O)C[C@H]1C2(C)CC34OC5(C)O[C@@]6([C@H](OC)C(OC(=O)C(C)C)[C@]7(C)C(/C(=C(/OC)C(C)C)C(=O)O[C@H]7c7ccoc7)[C@@]6(O5)[C@H](OC)[C@@]3(OC)C2OC(C)=O)[C@]14C` (some centres unmarked) [CHUKRASIN METHYL ETHER], the inhibition at 50 µM was determined as 1%.

In the case of `O=C(O)CCCCCCCCCCCC[C@@H]1C=CCC1` [CH[…]], the inhibition at 50 µM came to 156%.

As to `O=C1CCc2cc(OCCCCc3nnnn3C3CCCCC3)ccc2N1` [CILOSTAZOL], the inhibition at 50 µM was 2%.

Regarding `C=C[C@H]1CN2CC[C@H]1C[C@H]2[C@H](O)c1ccnc2ccccc12` [CINCHONIDINE], the inhibition at 50 µM is 0%.

For `C=C[C@H]1C[N@@]2CC[C@H]1C[C@@H]2[C@@H](O)c1ccnc2ccccc12` [CINCHONINE], the inhibition at 50 µM was 1%.

In the case of `O=C(O)c1cc(-c2ccccc2)nc2ccccc12` [CINCHOPHEN], the inhibition at 50 µM is 6%.

On to `CC12CCC(CC1)C(C)(C)O2` [CINEOLE], for which the inhibition at 50 µM came to 1%.

As to `O=C(O)c1cn(C2CC2)c2cc(N3CCNCC3)c(F)cc2c1=O` [CIPROFLOXACIN], the inhibition at 50 µM came out at 1%.

As to `N.N.[Cl][Pt][Cl]` [CISPLATIN], the “Inhibition (%)” value is reported as 2.

Turning to `CC[C@H]1OC(=O)[C@H](C)[C@@H](O[C@H]2C[C@@](C)(OC)[C@@H](O)[C@H](C)O2)[C@H](C)[C@@H](O[C@@H]2O[C@H](C)C[C@H](N(C)C)[C@H]2O)[C@](C)(OC)C[C@@H](C)C(=O)[C@H](C)[C@@H](O)[C@]1(C)O` [CLARITHROMYCIN], the inhibition at 50 µM turned out to be 0%.

Consider `CCC[C@@H]1C[C@@H](C(=O)N[C@@H]([C@H]2O[C@H](SC)[C@H](O)[C@@H](O)[C@H]2O)[C@H](C)Cl)N(C)C1` [CLINDAMYCIN HYDROCHLORIDE], for which the inhibition at 50 µM stood at 0%.

With `Oc1c(I)cc(Cl)c2cccnc12` [CLIOQUINOL], the inhibition at 50 µM worked out at 1%.

As for `CCC(=O)O[C@]1(C(=O)CCl)[C@@H](C)C[C@H]2[C@@H]3CCC4=CC(=O)C=C[C@]4(C)[C@@]3(F)[C@@H](O)C[C@@]21C` [CLOBETASOL PROPIONATE], the inhibition at 50 µM worked out at 2%.

Regarding `CC(C)/N=c1\cc2n(-c3ccc(Cl)cc3)c3ccccc3nc-2cc1Nc1ccc(Cl)cc1` [CLOFAZIMINE], the inhibition at 50 µM turned out to be 0%.

As for `CC(C)(C)CC(C)(C)c1ccc(O)c(Cc2ccc(Cl)cc2Cl)c1` [CLOFOCTOL], the inhibition at 50 µM came to 2%.

Regarding `COC(=O)[C@H](c1ccccc1Cl)N1CCc2sccc2C1` [CLOPIDOGREL SULFATE], the inhibition at 50 µM came out at 11%.

Consider `Cc1nc(C)c(Cl)c(O)c1Cl` [CLOPIDOL], for which the inhibition at 50 µM was found to be 2%.

As to `C/C1=C2/[N-][C@H]([C@H](CC(N)=O)[C@@]2(C)CCC(=O)NC[C@@H](C)OP(=O)([O-])O[C@H]2[C@@H](O)[C@@H](n3cnc4cc(C)c(C)cc43)O[C@@H]2CO)[C@]2(C)N=C(/C(C)=C3N=C(/C=C4N=C1[C@@H](CCC(N)=O)C\4(C)C)[C@@H](CCC(N)=O)[C@]\3(C)CC(N)=O)[C@@H](CCC(N)=O)[C@]2(C)CC(N)=O.[CH2-][C@H]1O[C@@H](n2cnc3c(N)ncnc32)[C@H](O)[C@@H]1O.[Co]` [COENZYME B12], the “Inhibition (%)” value stood at 20.

On to `C=C[C@@]1(C)CC(=O)[C@]2(O)[C@@]3(C)[C@@H](O)CCC(C)(C)[C@@H]3[C@H](O)[C@H](OC(C)=O)[C@@]2(C)O1` [COLFORSIN], for which the inhibition at 50 µM came out at 1%.

Consider `C[C@H]1[C@H]2CC[C@H]3[C@@H]4CC=C5C[C@@H](N(C)C)CC[C@]5(C)[C@H]4CC[C@]23CN1C` [CONESSINE], for which the inhibition at 50 µM is 2%.

As to `C[C@@H]1O[C@@H](O[C@H]2CC[C@]3(C=O)[C@H]4CC[C@]5(C)[C@@H](C6=CC(=O)OC6)CC[C@]5(O)[C@@H]4CC[C@]3(O)C2)[C@H](O)[C@H](O)[C@H]1O` [CONVALLATOXIN], the inhibition at 50 µM stood at 1%.

`COC(=O)[C@H]1[C@H]2C[C@H]3c4[nH]c5ccccc5c4CCN3C[C@@H]2CC[C@@H]1O` [CORYNANTHINE]: the “Inhibition (%)” value turned out to be 2.

In the case of `COc1c2c(cc3c1OCO3)CC[N+](C)=C2` [COTARNINE CHLORIDE], the inhibition at 50 µM amounted to 2%.

Consider `CC(=O)Oc1c(C)cccc1C(=O)O` [CRESOPIRINE], for which the “Inhibition (%)” value turned out to be 1.

In the case of `C[C@H]1COC2=C1C(=O)C(=O)c1c2ccc2c1CCCC2(C)C` [CRYPTOTANSHINONE], the inhibition at 50 µM is 16%.

As for `COc1cc(/C=C/C(=O)CC(=O)/C=C/c2ccc(O)c(OC)c2)ccc1O` [CURCUMIN], the inhibition at 50 µM worked out at 1%.

Turning to `NC1=NCCN1CC(=O)O` [CYCLOCREATINE], the inhibition at 50 µM was determined as 0%.

As for `N[C@@H]1CON=C1O` [CYCLOSERINE], the inhibition at 50 µM worked out at 0%.

Turning to `CC1(C)C(C=C(Cl)Cl)C1C(=O)OC(C#N)c1cccc(Oc2ccccc2)c1` (centres unmarked) [CYPERMETHRIN], the inhibition at 50 µM amounted to 3%.

`CC(=O)O[C@]1(C(C)=O)CC[C@H]2[C@@H]3C=C(Cl)C4=CC(=O)[C@@H]5C[C@@H]5[C@]4(C)[C@H]3CC[C@@]21C` [CYPROTERONE ACETATE]: the inhibition at 50 µM came out at 0%.

On to `Cl.NCCS` [CYSTEAMINE HYDROCHLORIDE], for which the “Inhibition (%)” value amounted to 19.

Take `O=c1cccc2n1C[C@@H]1CNC[C@H]2C1` [CYTISINE]: the inhibition at 50 µM was 3%.

Regarding `CN(C)/N=N/c1[nH]cnc1C(N)=O` [DACARBAZINE], the inhibition at 50 µM was determined as 3%.

For the compound `C=CC(C1=CC(=O)C(OC)=CC1=O)c1ccc(O)cc1` (centres unmarked) [DALBERGIONE. 4-METHOXY-4'-HYDROXY-], the “Inhibition (%)” value came to 90.

`C=CC(C1=CC(=O)C=CC1=O)c1ccccc1` (centres unmarked) [DALBERGIONE]: the inhibition at 50 µM amounted to 91%.

Consider `O=C1c2cccc(O)c2C(=O)c2c(O)cccc21` [DANTHRON], for which the inhibition at 50 µM was 1%.

Turning to `O=C1CN(/N=C/c2ccc(-c3ccc([N+](=O)[O-])cc3)o2)C(O)=N1` [DANTROLENE SODIUM], the inhibition at 50 µM amounted to 3%.

In the case of `Nc1ccc(S(=O)(=O)c2ccc(N)cc2)cc1` [DAPSONE], the inhibition at 50 µM came out at 0%.

In the case of `NC(=O)C(c1ccccc1)(c1ccccc1)[C@@H]1CCN(CCc2ccc3c(c2)CCO3)C1` [DARIFENACIN HYDROBROMIDE], the inhibition at 50 µM was found to be 2%.

As for `COc1cccc2c1C(=O)c1c(O)c3c(c(O)c1C2=O)C[C@@](O)(C(C)=O)C[C@@H]3O[C@H]1C[C@H](N)[C@H](O)[C@H](C)O1` [DAUNORUBICIN], the inhibition at 50 µM was 2%.

As for `CC1(C)C(=O)C=C[C@]2(C)[C@H]3CC[C@@]4(C)[C@H](c5ccoc5)OC(=O)[C@H]5O[C@]54[C@]3(C)C(=O)C[C@@H]12` [DEACETOXY-7-OXOGEDUNIN], the inhibition at 50 µM was 2%.

For the compound `CC1(C)C(=O)C=C[C@]2(C)[C@H]3CC[C@@]4(C)[C@H](c5ccoc5)OC(=O)[C@H]5O[C@]54[C@]3(C)[C@H](O)C[C@@H]12` [DEACETYLGEDUNIN], the inhibition at 50 µM is 1%.

Regarding `C[N+](C)(C)CCCCCCCCCC[N+](C)(C)C` [DECAMETHONIUM BROMIDE], the inhibition at 50 µM stood at 0%.

`CCCCCCCCCCOc1cc2c(O)c(C(=O)OCC)cnc2cc1OCC` [DECOQUINATE]: the inhibition at 50 µM is 36%.

For `CC(=O)N(O)CCCCCNC(=O)CCC(=O)N(O)CCCCCNC(=O)CCC(=O)N(O)CCCCCN` [DEFEROXAMINE MESYLATE], the inhibition at 50 µM was 1%.
